Experimental data published in US20110071052A1, “MEASUREMENT OF PROTEIN KINASE ACTIVITY IN CEREBROSPINAL FLUID FOR DIAGNOSIS OF NEUROLOGICAL AND PSYCHIATRIC DISORDERS” (priority 2008, published 2011).

What was measured:
[1] = system: IL-1β induced IL-6 secretion by U373 astrocytoma cells; test: IL-1β induced IL-6 secretion by U373 astrocytoma cells (ELISA); assay type: cell-based; conditions: IL-1β 10 U/ml, 6 hours, inhibitor 1250, 2500 or 5000 nM
[2] = system: IL-1β induced IL-6 secretion by human primary astrocytes; test: IL-1β induced IL-6 secretion by human primary astrocytes (ELISA); assay type: cell-based; conditions: IL-1β 10 U/ml, 6 hours, inhibitor 1250, 2500 or 5000 nM
Text: IL-1β has been implicated in both the initiation and propagation of neuroinflammatory changes seen in Alzheimer's disease patients. One of the main mechanisms of IL-1β is the induction of interleukin 6 (IL-6) secretion, which propagates the neuroinflammatory response in Alzheimer's disease patients. Using primary human adult astrocytes this inflammatory response as well as modulators (i.e. potential drugs for therapy) can be studied in vitro. […] In the presence of IL-1β (10 U/ml) these cells secrete IL-6 in the culture supernatant, which can be measured by ELISA. […] Cells were incubated with or without IL-1β (10 U/ml) for 6 hours in the presence of different concentration of IRAK1/4 inhibitor I (1250, 2500, or 5000 nM). IL-6 levels (pg/ml) in the culture supernatants were determined by ELISA. Shown are mean levels +/− S.D. of three replicate stimulations.

## O=C(Nc1nc2ccccc2n1CCN1CCOCC1)c1cccc([N+](=O)[O-])c1 [IRAK1/4 inhibitor I]
[1]
  IL-6 secretion in culture supernatant: dose-dependently inhibits IL-6 secretion
[1]; listed as IRAK1/4 inhibitor
  IL-6 secretion in culture supernatant: reduced
[2]
  IL-6 secretion in culture supernatant: dose-dependently inhibits IL-6 secretion
[2]; listed as IRAK1/4 inhibitor
  IL-6 secretion in culture supernatant: reduced
